Test results published in ChEMBL document CHEMBL1125517, “Synthesis and antifolate evaluation of 10-ethyl-5-methyl-5,10- dideazaaminopterin and an alternative synthesis of 10-ethyl-10- deazaaminopterin (edatrexate)” (J Med Chem, 1992).

Experiments:
[1] = tested on: L1210; experiment: In vitro inhibition of L1210 cell growth; assay type: functional, cell-based; conditions: Mus musculus
[2] = tested on: L1210; experiment: Compound was evaluated for influx of L1210 cells; assay type: functional, cell-based; conditions: Mus musculus

Question: Which IC50 [1] does the source give for CCC(Cc1cnc2nc(N)nc(N)c2n1)c1ccc(C(=O)NC(CCC(=O)O)C(=O)O)cc1 (centres undefined) here?
Answer: 0.065 µM

Question: And the Km [2]?
Answer: 1.08 µM

Question: For CN(Cc1cnc2nc(N)nc(N)c2n1)c1ccc(C(=O)N[C@@H](CCC(=O)O)C(=O)O)cc1 [METHOTREXATE], which IC50 [1] is on record?
Answer: 0.0034 µM

Question: And the Km [2]?
Answer: 3.51 µM
